According to US6770020B2 (priority 2001, dated 2004):
Entries after “also recorded” stand apart in the source; their conditions may differ.

Columns and labels:
[1] = tested on: human glioblastoma cells (TB 10); test: Gd-DTPA toxicity by cell counting; type: cell-based
Procedure: Two effects that may affect the Gd-DTPA uptake kinetics were examined: compound toxicity and cell density. Three independent series of cell cultures were grown at different densities and exposed for up to 120 hours. Cell counting performed at the end of the incubation time either in control or in Gd-treated cultures gave the same cell number.
In addition, some of the cells exposed to Gd-DTPA for 120 hours were re-plated.

[2] = rats; cited from earlier work
[3] = higher concentrations and prolonged exposure; cited from earlier work
[4] = tested on: human glioblastoma cells (TB 10); test: TOF-SIMS analysis of Gd in individual cells; type: cell-based
Description: Time of Flight Secondary Ion Mass-Spectrometry (TOF-SIMS), another technique for microchemical analysis^(22) was utilized to validate data from MEPHISTO spectromicroscopy, in addition to the ICP-MS data. Cell samples were bombarded with either 15 or 25 keV Ga^+ ions, focused in a microscopic beam, which induced desorption of the surface atoms. The emitted ions were then accelerated, and detected by a high resolution mass spectrometer. By scanning the microscopic Ga ion beam, TOF-SIMS produced images of the cell surface, and distribution maps of specific element isotopes, with a spatial resolution of […]. High resolution mass spectra were obtained from microscopic areas, selected as the region of interest in the cell images, to allow quantitative comparison of Gd concentration in sub-cellular regions.
The results obtained in MEPHISTO were corroborated by the TOF-SIMS) data, an independent technique to evaluate elemental distributions at a microscopic scale. Two cells were studied from one of the etched 72-hour exposure samples used in the MEPHISTO experiment. Note in the table that the concentration of Gd is consistently higher in nuclei than in cytoplasm.
TOF-SIMS analysis of a non-etched cell at the nucleus position (also Gd-exposed for 72 hours), was performed before and after strong sputtering to probe the Gd concentration on the membrane and inside the nucleus. The total Gd ion yield, calculated as for the first column of Table 2, gave 0.055 cts/s on the unsputtered sample.
After 30 second sputtering (with 25 keV Ga˜ ions) to remove surface contamination, the total Gd ion yield from the cell membrane was 0.182 cts/s. After 16 minute sputtering to penetrate about […] into the nucleus, the total Gd ion yield was 1.844 cts/s.

[5] = cited from earlier work
[6] = tested on: human glioblastoma cells (TB 10); test: Cell survival after thermal neutron irradiation of Gd-DTPA-exposed cultures; type: cell-based; details: for cell death after neutron irradiation: FIG. 5
Procedure: 5) For neutron bombardment, two series of cell cultures (each one in duplicate) from different passages were plated in plastic “NUNC”-brand flasks (Nalge Nunc International, Rochester, N.Y.) (NUNCLON, 25 cm^2culture area) at a density of 1×10^4 cells/cm^2 and exposed to no Gd-DTPA, 1 mg/ml, 5 mg/ml, or 10 mg/ml GdDTPA, for 72 hours, beginning 24 hours after plating. At the end of the exposure period, the growth media were removed and the flasks filled with Puck's modified saline, in which the cells remained for two hours before neutron bombardment. The cells were then irradiated for one hour under a thermal neutron flux of 3×10^8 n/cm^2s (nominal power 5 kW), at the ENEA's (Ente per le Nuove Tecnologie, L'Energia e L'Ambiente, Rome, Italy) TAPIRO fast Reactor. The fast neutron flux at the center of the irradiation chamber (20 cm^3 cube) was negligible, while the γ average dose was 3.2 Gy/h.^(20) Two hours later, the cells were detached from the plates, and cell survival was measured by cell counting and by the colorimetric MTT assay. The standard deviation of cell counting results on the four culture series was within 10%.
To verify if the 140 μg/ml of Gd retained by glioblastoma cells in the two- to four-hour washout time was still available as an efficient tumoricidal agent for NCT, the cultures were irradiated for one hour with thermal neutrons.
The data of FIG. 5 were obtained by direct living cell count and very similar results were obtained by the use of an MTT assay. As presented in FIG. 5, the control cultures (no Gd) were also affected by neutron irradiation, causing 20% of the cells to die. […] The serum-free environment insures that the DNA-repair cellular mechanism is slowed down, resulting (in principle) in decreased survival of the cells in which the Gd neutron capture reaction induced DNA damage. The 20% cell killing observed in cells not exposed to Gd provides an evaluation of the extent of this phenomenon.

[7] = Cell 1, Cytoplasm, 72 hours exposure
[8] = Cell 1, Nucleus, 72 hours exposure
[9] = Cell 2, Cytoplasm, 72 hours exposure
[10] = Cell 2, Nucleus, 72 hours exposure

For O=C([O-])CN(CCN(CC(=O)[O-])CC(=O)O)CCN(CC(=O)[O-])CC(=O)O.[Gd+3] [Gd-DTPA, gadolinium diethylene triamine pentaacetic acid], the “growth and morphology after re-plating” value ([1]; cells exposed 120 hours, re-plated, after one week) was “grew normally”, the “cytotoxic or cytostatic effect (cell counting vs. unexposed controls)” value ([1]; different concentrations of Gd-DTPA, 72 hours) was “not cytotoxic or cytostatic” and the “cytotoxic or cytostatic effect (cell counting vs. control)” value ([1]; exposed for up to 120 hours) was “did not show any cytotoxic or cytostatic effect; also recorded: no toxic effects; also recorded: no effect on cell survival”. For the same compound, the LD50 [2] was 20 mmol/kg, the intravascular hemolysis [3] was “weak, reversible intravascular hemolysis” and the “Ratio nucleus:cytoplasm, ^155Gd” value ([4]; Cell 1, 72 hours exposure) was 2.51. For the same compound, the “Ratio nucleus:cytoplasm, ^155GdO” value ([4]; Cell 1, 72 hours exposure) was 2.52, the “Ratio nucleus:cytoplasm, ^156Gd” value ([4]; Cell 1, 72 hours exposure) was 1.89 and the “Ratio nucleus:cytoplasm, ^156GdO” value ([4]; Cell 1, 72 hours exposure) was 2.03. The “Ratio nucleus:cytoplasm, ^157GdO” value ([4]; Cell 1, 72 hours exposure) was 2.06, the “Ratio nucleus:cytoplasm, ^158Gd” value ([4]; Cell 1, 72 hours exposure) was 1.53 and the “Ratio nucleus:cytoplasm, ^160Gd” value ([4]; Cell 1, 72 hours exposure) was 1.99. The “Ratio nucleus:cytoplasm, ^160GdO” value ([4]; Cell 1, 72 hours exposure) was 2.00, the “Ratio nucleus:cytoplasm, total Gd ion yield” value ([4]; Cell 1, 72 hours exposure) was 2.02 and the “Detection Rate, ^155Gd” value [4, 7] was 0.41 Counts/s. The “Detection Rate, ^155GdO” value [4, 7] was 0.63 Counts/s, the “Detection Rate, ^156Gd” value [4, 7] was 0.91 Counts/s and the “Detection Rate, ^156GdO” value [4, 7] was 0.91 Counts/s. For the same compound, the “Detection Rate, ^157GdO” value [4, 7] was 2.08 Counts/s, the “Detection Rate, ^158Gd” value [4, 7] was 0.89 Counts/s and the “Detection Rate, ^160Gd” value [4, 7] was 0.68 Counts/s. The “Detection Rate, ^160GdO” value [4, 7] was 0.94 Counts/s, the “Detection Rate, total Gd ion yield” value [4, 7] was 6.44 Counts/s and the “Detection Rate, ^155Gd” value [4, 8] was 1.03 Counts/s. The “Detection Rate, ^155GdO” value [4, 8] was 1.59 Counts/s, the “Detection Rate, ^156Gd” value [4, 8] was 1.72 Counts/s and the “Detection Rate, ^156GdO” value [4, 8] was 1.85 Counts/s. For the same compound, the “Detection Rate, ^157GdO” value [4, 8] was 2.23 Counts/s, the “Detection Rate, ^158Gd” value [4, 8] was 1.36 Counts/s and the “Detection Rate, ^160Gd” value [4, 8] was 1.35 Counts/s. For the same compound, the “Detection Rate, ^160GdO” value [4, 8] was 1.88 Counts/s, the “Detection Rate, total Gd ion yield” value [4, 8] was 12.98 Counts/s and the “Ratio nucleus:cytoplasm, ^155Gd” value ([4]; Cell 2, 72 hours exposure) was 1.60. For the same compound, the “Ratio nucleus:cytoplasm, ^155GdO” value ([4]; Cell 2, 72 hours exposure) was 1.34, the “Ratio nucleus:cytoplasm, ^156Gd” value ([4]; Cell 2, 72 hours exposure) was 1.86 and the “Ratio nucleus:cytoplasm, ^156GdO” value ([4]; Cell 2, 72 hours exposure) was 1.41. For the same compound, the “Ratio nucleus:cytoplasm, ^157GdO” value ([4]; Cell 2, 72 hours exposure) was 1.56, the “Ratio nucleus:cytoplasm, ^158Gd” value ([4]; Cell 2, 72 hours exposure) was 1.84 and the “Ratio nucleus:cytoplasm, ^160Gd” value ([4]; Cell 2, 72 hours exposure) was 1.63. For the same compound, the “Ratio nucleus:cytoplasm, ^160GdO” value ([4]; Cell 2, 72 hours exposure) was 1.72, the “Ratio nucleus:cytoplasm, total Gd ion yield” value ([4]; Cell 2, 72 hours exposure) was 1.60 and the “Detection Rate, ^155Gd” value [4, 9] was 0.23 Counts/s. The “Detection Rate, ^155GdO” value [4, 9] was 0.38 Counts/s, the “Detection Rate, ^156Gd” value [4, 9] was 0.37 Counts/s and the “Detection Rate, ^156GdO” value [4, 9] was 0.51 Counts/s. The “Detection Rate, ^157GdO” value [4, 9] was 0.57 Counts/s, the “Detection Rate, ^158Gd” value [4, 9] was 0.32 Counts/s and the “Detection Rate, ^160Gd” value [4, 9] was 0.33 Counts/s. For the same compound, the “Detection Rate, ^160GdO” value [4, 9] was 0.5 Counts/s, the “Detection Rate, total Gd ion yield” value [4, 9] was 3.21 Counts/s and the “Detection Rate, ^155Gd” value [4, 10] was 0.37 Counts/s. For the same compound, the “Detection Rate, ^155GdO” value [4, 10] was 0.51 Counts/s, the “Detection Rate, ^156Gd” value [4, 10] was 0.69 Counts/s and the “Detection Rate, ^156GdO” value [4, 10] was 0.72 Counts/s. The “Detection Rate, ^157GdO” value [4, 10] was 0.89 Counts/s, the “Detection Rate, ^158Gd” value [4, 10] was 0.59 Counts/s and the “Detection Rate, ^160Gd” value [4, 10] was 0.54 Counts/s. The “Detection Rate, ^160GdO” value [4, 10] was 0.86 Counts/s, the “Detection Rate, total Gd ion yield” value [4, 10] was 5.13 Counts/s and the “total Gd ion yield” value ([4]; non-etched cell at the nucleus position, 72 hours exposure, unsputtered sample) was 0.055 cts/s. The “total Gd ion yield from the cell membrane” value ([4]; non-etched cell, 72 hours exposure, after 30 second sputtering) was 0.182 cts/s, the “total Gd ion yield” value ([4]; non-etched cell, 72 hours exposure, after 16 minute sputtering to penetrate about 1 pm into the nucleus) was 1.844 cts/s and the dose eliminated renally ([5]; 6 hours post-injection in man, average) was “about 83%”. For the same compound, the “dose found in the urine” value ([5]; 5 days post-injection in man) was “approximately 91%”, the “dose dependence of pharmacokinetics” value ([5]; humans) was “independent of the dose” and the “half life in the blood” value ([5]; in vivo) was “around 30 minutes”. The “cell death after Gd exposure followed by thermal neutrons” value ([6]; 140 μg/ml Gd retained after two hours in physiological solution, 1 hour thermal neutrons) was 70%, the “cell inactivation by Gd plus thermal neutrons vs. thermal neutrons alone” value ([6]; 70% vs. 20% killing) was 3.5 times and the “cell death after neutron irradiation” value ([6]; exposure 1 mg/ml Gd-DTPA 72 hours) was “not sufficient to induce consistent cell death”. For the same compound, the “cell death after neutron irradiation” value ([6]; exposure 10 and 5 mg/ml Gd-DTPA 72 hours) was “evident and reproducible cell death”.
